According to patent US11807647B2, “Crystal form of hepatitis B surface antigen inhibitor and application thereof” (FUJIAN AKEYLINK BIOTECHNOLOGY CO., LTD., priority 2019, dated 2023):

Tests used:
[1] = system: hepatitis B; conditions: woodchuck model, used as a single drug; cited from earlier work
[2] = Physical stability test of crystal form A as a solid under various temperature, humidity and light conditions; format: physicochemical
Description: 4 samples of crystal form A of the compound of formula (I) were weighed in parallel (about 100 mg each), placed on the bottom of glass sample bottles, and spread out as a thin layer. The bottles were sealed with aluminum foil paper, and some small holes were made on the aluminum foil paper to ensure that the samples could fully contact with ambient air. The prepared 4 samples were placed under a relative humidity of 25° C./92.5%, 60° C., 40° C./75% and light conditions, respectively, to investigate the physical stability of the samples on day 10. In addition, about 100 mg of crystal form A solid of the compound of formula (I) was separately weighed, placed at the bottom of a glass sample bottle, sealed with a screw cap and stored at −20° C. for use as a control sample. On day 10, all samples were taken out, returned to room temperature, and observed for appearance changes, and the crystal forms of the samples were detected by XRPD. By comparing an accelerated sample with the control sample, the physical stability of crystal form A of the compound of formula (I), as a solid, was determined.

[3] = Stability test of crystal form A as a solid under high temperature and high humidity conditions; format: physicochemical; conditions: 40° C./75% humidity
Description: 2 samples of crystal form A of the compound of formula (I) were weighed in parallel (about 100 mg each), placed on the bottom of glass sample bottles, and spread out as a thin layer. The bottles were sealed with aluminum foil paper, and some small holes were made on the aluminum foil paper to ensure that the samples could fully contact with ambient air. The bottles were placed in a constant temperature and humidity chamber at 40° C./75% humidity. The samples placed under the above-mentioned conditions were sampled and tested on day 5 and day 10. The test results were compared with initial test results on day 0.

[4] = system: HBV-DNA; assay: In vitro HBV activity test, HBV-DNA by quantitative PCR in HepG2.2.15 cells; format: cell-based, Hepatitis B Virus
Description: (§1) 1. Cell Lines: HepG2.2.15 Cells
(§2) 2. Reagents: • Pancreatin (Invitrogen-25300062) • DPBS (Corning-21031CVR) • Dimethyl sulfoxide (Sigma-D2650-100 ML) • High-throughput DNA purification kit (QIAamp 96 DNA Blood Kit, Qiagen-51162) • Quantitative faststart universal probe reagent (FastStart Universal Probe Master, Roche-04914058001) • Hepatitis B surface antigen quantitative detection kit (Autobio, CL 0310) • 3. Consumables and Instruments • 96-well cell culture plate (Corning-3599) • CO2 incubator (HERA-CELL-240) • Optical sealing film (ABI-4311971) • Quantitative PCR 96-well plate (Applied Biosystems-4306737) • Fluorescence quantitative PCR instrument (Applied Biosystems-7500 real time PCR system)
(§3) 1. HepG2.2.15 cells (4×10^4 cells/well) were seeded to a 96-well plate and incubated overnight at 37° C., 5% CO2.
2. On day 2, the compound was diluted to a total of 8 concentrations, with a 3-fold gradient dilution. The compounds at different concentrations were added to culture wells in duplicate. The final concentration of dimethyl sulfoxide in the culture medium was 0.5%. 10 μM ETV was used as 100% inhibition control; 0.5% dimethyl sulfoxide was used as a 0% inhibition control.
3. On day 5, the culture medium was replaced with a fresh culture medium containing the compound.
4. […]

[5] = system: hepatitis B surface antigen (HBsAg); assay: In vitro HBV activity test, hepatitis B virus S antigen by ELISA in HepG2.2.15 cells; format: cell-based
Description: as §1, §2, §3
2. […]
6.3 Determination of the content of hepatitis B virus S antigen by ELISA involve respectively adding 50 μl of samples and standards to a reaction plate, and then adding 50 μL of enzyme conjugate to each well; shaking same to mix uniformly, and incubating at 37° C. for 60 minutes; washing the plate 5 times with a washing solution, adding 50 μL of luminescent substrate to each well, mixing uniformly, and reacting same in the dark at room temperature for 10 minutes; and finally, detecting chemiluminescence intensity with a microplate reader. […]

[6] = 25° C./92.5% relative humidity (open), Day 10
[7] = 40° C./75% relative humidity (open), Day 10
[8] = Day 0 (−20° C. storage with seal) (control sample), time point Day 10

## COCCCOc1cc2c(cc1OC)-c1cc(=O)c(C(=O)O)cn1[C@H](C(C)C)C2 [RG7834]
[1]
  reduction of HBV-DNA: 1.7 Log
  reduction of surface antigens: 2.57 Log

## COCCCOc1cc2c(cc1Cl)-c1cc(=O)c(C(=O)O)cn1[C@H](c1cccs1)O2 [crystal form A]
[2]; [6]
  Character: White powder
  Polymorph: Polymorph A
  Purity: 99.80%
[2]; [7]
  Character: White powder
  Polymorph: Polymorph A
  Purity: 99.79%
[2]; 60° C. (open), Day 10
  Character: White powder
  Polymorph: Polymorph A
  Purity: 99.75%
[2]; [8]
  Character: White powder
  Polymorph: Polymorph A
  Purity: 99.79%
[2]; Light, Day 10
  Character: White powder
  Polymorph: Polymorph A
  Purity: 99.71%
[2]; solid, various temperature, humidity and light conditions, day 10
  stability (experimental conclusion): good stability
[3]; day 0 (initial)
  Appearance: White powder
  Polymorph: Polymorph A
  Purity: 99.79%
  Total impurities: 0.21%
[3]; day 5
  Appearance: White powder
  Polymorph: Polymorph A
  Purity: 99.79%
  Total impurities: 0.21%
[3]; day 10
  Appearance: White powder
  Polymorph: Polymorph A
  Purity: 99.79%
  Total impurities: 0.21%
[3]; solid, up to day 10
  stability (experimental conclusion): good stability

## COCCCOc1cc2c(cc1Cl)-c1cc(=O)c(C(=O)O)cn1[C@H](c1cccs1)O2 [Compound of formula (I)]
[4]
  inhibition of HBV-DNA (experimental conclusion): effectively inhibit
[4]; Hepatitis B virus, 192 h, culture medium collected on day 8
  EC50: 1.13 nM
[5]; HepG2.2.15 cells
  inhibition of hepatitis B surface antigen (HBsAg) (experimental conclusion): effectively inhibit
[5]; Hepatitis B virus, HepG2.2.15, 192 h, read-out: HBsAg EC50
  EC50: 1.54 nM
